According to patent US11026944B2, “Compositions and methods for treating insomnia” (Eisai R&D Management Co., Ltd., priority 2014, dated 2021):

Test system: subjects with insomnia
Experiment: 201 Study: polysomnography (SE, LPS, WASO) dose-response
Format: in vivo, human
Description: This was a multi-center, randomized, double-blind, adaptive design, dose-response study in subjects with insomnia. Subjects were randomized to 1 of 6 doses of compound A (1 mg, 2.5 mg, 5 mg, 10 mg, 15 mg and 25 mg) or placebo.
The study had 2 phases: Prerandomization and Randomization. The Prerandomization Phase lasted up to 21 days and consisted of a Screening Period (Days-21 to -2) and a Baseline Period (Day-1). After the Baseline Period, all eligible subjects were randomized in a double-blind manner to receive compound A or placebo for 15 nights during the Treatment Period (Days 1 to 15). All subjects then received placebo in a single-blind manner, for 2 nights (Days 16 to 17) during the Rebound Insomnia Assessment Period (Days 16 to 18). […] All subjects came to the clinic for screening procedures. During the Screening Period, subjects completed the Sleep Diary each day. Polysomnographic sleep was measured during the Screening Period on 2 consecutive nights between Day-9 and Day-3. The 8-hour polysomnograms (PSGs) were started at the median habitual bedtime calculated from responses on the Sleep Diary, which were completed for 7 days before the first PSG night. These recordings served as both eligibility screening PSGs and as Baseline PSGs. Subjects could leave the clinic between the screening/Baseline PSG nights.
All subjects returned to the clinic on Day-1 for Baseline Period procedures. They remained in the clinic until Day 3. Morning assessments on Day 1 provided the Baseline values for the KSS, the Digit Symbol Substitution Test (DSST), and the Reaction Time Index (RTI). Assessments at 6 hours after waketime provided the Baseline values for the Waking Function Battery (WFB), and the Profile of Mood States-Brief (POMS-B). Subjects were then randomized to receive 1 of 6 doses of compound A or placebo for the next 15 days. Study drugs were tablets containing compound A-matched placebo or compound A of 1 mg, 2.5 mg, 5 mg, or 10 mg and to be ingested 30 minutes before the median habitual bedtime calculated from their Sleep Diary responses during the Screening Period. An 8-hour PSG, starting at the same bedtime as used for the screening and Baseline PSG nights, was recorded on the first 2 treatment nights (Days 1 and 2). The Sleep Diary continued to be completed each day in the clinic, and assessments of insomnia severity (ISI), next-day residual effects (KSS, DSST, and RTI) were conducted while subjects were in the clinic. On specified study days, plasma concentrations of compound A were assessed while subjects were in the clinic in the morning after awakening and at trough just before dosing.
Subjects continued to take compound A or placebo 30 minutes before their anticipated, self-selected bedtime and continued to complete the Sleep Diary each day while at home during the Treatment Period. On Day 14 of the Treatment Period, subjects returned to the clinic. They remained in the clinic for 4 nights and the intervening days until Day 18. Eight-hour PSGs were recorded each night in the clinic, to start at the median habitual bedtime calculated from responses on the Sleep Diary completed on Days 3 to 13. The Sleep Diary continued to be completed each day in the clinic, and the ISI, KSS, DSST, RTI, were administered at prespecified time points during the daytime hours.
In Table 5, “Baseline” was defined as the mean of the screening PSG 1 and 2, within −9 to −3 days of randomization. “LS Means Diff” refers to the differences between LS Means of Placebo and each compound A dose, “95% CI” means to 95% CI of LS Means Diff. “p-value” was analyzed using analysis of covariance (ANCOVA) with baseline as a covariate.
In Table 7, “Baseline” was defined as the mean of the screening PSG 1 and 2, within −9 to −3 days of randomization. “p-value” was analyzed using analysis of covariance (ANCOVA) with baseline as a covariate.
In Table 8, “Baseline” was defined as the mean of the screening PSG 1 and 2, within −9 to −3 days of randomization. […]

[1] = Days 14 & 15 minus Days 1 & 2, 1 mg nightly
[2] = Days 14 & 15 minus Days 1 & 2, 2.5 mg nightly
[3] = Days 14 & 15 minus Days 1 & 2, 5 mg nightly
[4] = Days 14 & 15 minus Days 1 & 2, 10 mg nightly
[5] = Days 14 & 15 minus Days 1 & 2, 15 mg nightly
[6] = Days 14 & 15 minus Days 1 & 2, 25 mg nightly

Cc1ncc(OC[C@@]2(c3cccc(F)c3)C[C@H]2C(=O)Nc2ccc(F)cn2)c(C)n1 [Compound A, (1R,2 S)-2-(((2,4-dimethylpyrimidin-5-yl)oxy)methyl)-2-(3-fluorophenyl)-N-(5-fluoropyridin-2-yl) cyclopropanecarboxamide]
Change from Baseline in WASO, Mean of Days 1 & 2: LS Means Diff vs placebo (15 mg nightly): -29.3 min | Change from Baseline in WASO, Mean of Days 1 & 2: Mean (15 mg nightly): -66.1 min | Change from Baseline in WASO, Mean of Days 14 & 15: LS Means Diff vs placebo (15 mg nightly): -20.8 min | Change from Baseline in WASO, Mean of Days 14 & 15: Mean (15 mg nightly): -53.4 min | Change from Baseline in LPS, Mean of Days 1 & 2: Geometric Mean Ratio (compound A/placebo) (25 mg nightly): 0.39 | Change from Baseline in LPS, Mean of Days 14 & 15: Geometric Mean Ratio (compound A /placebo) (25 mg nightly): 0.34 | Change from Baseline in SE, Mean of Days 1 & 2: LS Means Diff vs placebo (25 mg nightly): 10.13% | Change from Baseline in SE, Mean of Days 1 & 2: Mean (25 mg nightly): 22.7% | Change from Baseline in SE, Mean of Days 14 & 15: LS Means Diff vs placebo (25 mg nightly): 8.87% | Change from Baseline in SE, Mean of Days 14 & 15: Mean (25 mg nightly): 21.4% | Change from Baseline in WASO, Mean of Days 1 & 2: LS Means Diff vs placebo (25 mg nightly): -25.8 min | Change from Baseline in WASO, Mean of Days 1 & 2: Mean (25 mg nightly): -62.3 min | Change from Baseline in WASO, Mean of Days 14 & 15: LS Means Diff vs placebo (25 mg nightly): -21.5 min | Change from Baseline in WASO, Mean of Days 14 & 15: Mean (25 mg nightly): -53.9 min | SE (B)-(A) Potential Habituation Effect: LS Means Diff vs placebo [1]: −3.3% | SE (B)-(A) Potential Habituation Effect: Mean [1]: −4.0% | WASO (B)-(A) Potential Habituation Effect: LS Means Diff vs placebo [1]: 13.2 min | WASO (B)-(A) Potential Habituation Effect: Mean [1]: 18.0 min | SE (B)-(A) Potential Habituation Effect: LS Means Diff vs placebo [2]: 0.3% | SE (B)-(A) Potential Habituation Effect: Mean [2]: −0.5% | WASO (B)-(A) Potential Habituation Effect: LS Means Diff vs placebo [2]: -2.9 min | WASO (B)-(A) Potential Habituation Effect: Mean [2]: 2.2 min | SE (B)-(A) Potential Habituation Effect: LS Means Diff vs placebo [3]: 1.0% | SE (B)-(A) Potential Habituation Effect: Mean [3]: 0.1% | WASO (B)-(A) Potential Habituation Effect: LS Means Diff vs placebo [3]: -2.9 min | WASO (B)-(A) Potential Habituation Effect: Mean [3]: 2.7 min | SE (B)-(A) Potential Habituation Effect: LS Means Diff vs placebo [4]: 0.3% | SE (B)-(A) Potential Habituation Effect: Mean [4]: −0.7% | WASO (B)-(A) Potential Habituation Effect: LS Means Diff vs placebo [4]: 2.8 min | WASO (B)-(A) Potential Habituation Effect: Mean [4]: 9.3 min | SE (B)-(A) Potential Habituation Effect: LS Means Diff vs placebo [5]: −1.3% | SE (B)-(A) Potential Habituation Effect: Mean [5]: −2.3% | WASO (B)-(A) Potential Habituation Effect: LS Means Diff vs placebo [5]: 5.2 min | WASO (B)-(A) Potential Habituation Effect: Mean [5]: 11.8 min | SE (B)-(A) Potential Habituation Effect: LS Means Diff vs placebo [6]: −1.1% | SE (B)-(A) Potential Habituation Effect: Mean [6]: −2.1% | WASO (B)-(A) Potential Habituation Effect: LS Means Diff vs placebo [6]: 2.7 min | WASO (B)-(A) Potential Habituation Effect: Mean [6]: 9.3 min | LPS (B)-(A) Potential Habituation Effect: Geometric Mean Ratio (compound A/placebo) (Days 14 & 15 vs Days 1 & 2, 1 mg nightly): 0.93 | LPS (B)-(A) Potential Habituation Effect: Geometric Mean Ratio (compound A/placebo) (Days 14 & 15 vs Days 1 & 2, 2.5 mg nightly): 0.90 | LPS (B)-(A) Potential Habituation Effect: Geometric Mean Ratio (compound A/placebo) (Days 14 & 15 vs Days 1 & 2, 5 mg nightly): 0.77 | LPS (B)-(A) Potential Habituation Effect: Geometric Mean Ratio (compound A/placebo) (Days 14 & 15 vs Days 1 & 2, 10 mg nightly): 0.60 | LPS (B)-(A) Potential Habituation Effect: Geometric Mean Ratio (compound A/placebo) (Days 14 & 15 vs Days 1 & 2, 15 mg nightly): 0.76 | LPS (B)-(A) Potential Habituation Effect: Geometric Mean Ratio (compound A/placebo) (Days 14 & 15 vs Days 1 & 2, 25 mg nightly): 0.89 | WASO, Days 1/2 compared to Days 14/15 (all doses): no statistical evidence of an increase or decrease in WASO | LPS geometric mean ratios vs placebo, significance (all other doses (2.5-25 mg), Mean of Days 1/2): evidence of statistical significance | WASO change from baseline vs placebo, significance (mean of Days 1/2, doses of 10 mg and above): statistically significant against placebo | WASO change from baseline vs placebo, significance (mean of Days 14/15, doses 15 mg and above): statistically significant against placebo
